Experimental data published in PubChem BioAssay AID2061108 (Research group of Professor Matthew Todd, School of …, 2025).
The source made the active and inactive calls. How the calls were made is not given here.

Tested on: A. baumannii ATCC 17978 growth inhibition, 100 uM
Assay: microbial growth inhibition plus red cell haemolysis – Idler compounds, first plate, PMBN-permeabilized strains, profiling panel (AID 2061108)
Conditions: S. aureus ATCC 9144 growth inhibition; measured here: A. baumannii ATCC 17978; at 100 µM; stronger effect = higher value

Compound | inhibition
COc1ccc2c(c1)nc(-c1c[nH]c3ccc(N4CCSCC4)cc13)c1[nH]ccc12 | 98.1%
N#Cc1cc(-c2cccc(Cl)c2)no1 | -0.723%
NC(=O)C1CCN(c2nc(OCc3ccc(F)nc3)nc(N3CCn4c(nnc4C(F)(F)F)C3)n2)CC1 | -4.58%
Cc1ccc(C)c(N2CCN(C(=O)C3CCN(c4ncnc5c4sc4ncccc45)CC3)CC2)c1 | -3.57%
CCS(=O)(=O)c1ccc(CNc2nc3ccccc3cc2C#N)s1 | -4.82%
COc1cc2nc(Nc3cc(C)[nH]n3)nc(N3CC(N(C)C)C3)c2cc1OC | 3.33%
O=C(N/N=C/c1ccc2cccc(O)c2n1)c1ccncc1 | 13.7%
CC(C)c1cc(Nc2nc(N[C@@H](CO)C3CCCCC3)nc3[nH]ncc23)n[nH]1 | -4.22%
O=C(CSc1nc(=O)[nH]c2c1CCC2)c1ccc(Cl)cc1 | 0%
O=C(Nc1nnc2ccccn12)c1ccc2cccc(Cl)c2n1 | -14.5%
NC(=O)C1CCN(c2nc(OCc3ccc(F)nc3)nc(N3CCCOCC3)n2)CC1 | -0.843%
COC(COc1cncc2nnc(-c3ccc(OC(F)F)cc3)n12)c1ccccc1 (centres undefined) | -16.4%
O=C(Cc1ccc(C(F)(F)F)nc1)N1Cc2cccnc2C1 | 0.241%
COc1cccc(C(=O)Nc2nc3cc(Cl)c(OC)cc3s2)c1 | -4.34%
O=c1[nH]c(=O)c2cc(S(=O)(=O)Nc3cc(F)c(N4CCN(c5ccccn5)CC4)c(F)c3)ccc2[nH]1 | 4.58%
Cn1nc(C(C)(C)C)cc1NC(=O)Nc1ccc(Cl)cc1 | -12%
O=C(Nc1ccccc1)C(Cl)C(=O)c1ccccc1 (centres undefined) | 37.9%
CC(Nc1ccc2oc(=O)[nH]c2c1)C(=O)Nc1ccccc1C#N (centres undefined) | -0.833%
CC1=CC(=O)C=C(C)C1=NOS(=O)(=O)c1ccc(Cl)cc1 | -15.4%
CC(C)CC(N)C(=O)NS(=O)(=O)c1cccc(-c2cc3ncnc(N)c3s2)c1 (centres undefined) | -8.69%
O=C(N1CCCCC1)N1CCCCC1Cc1ccccc1 (centres undefined) | -2.26%
Cc1ccc(CN2C(=O)NC3(CCN(C(=O)C(C)Oc4ccccc4)CC3)C2=O)cc1 (centres undefined) | -7.26%

Tested on: E. coli NCTC 12923 growth inhibition, 100 uM
Assay: as above
Conditions: E. coli NCTC 12923 growth inhibition, 100 µM; stronger effect = higher value

Compound | inhibition
COc1ccc2c(c1)nc(-c1c[nH]c3ccc(N4CCSCC4)cc13)c1[nH]ccc12 | 9.46%
N#Cc1cc(-c2cccc(Cl)c2)no1 | -0.811%
NC(=O)C1CCN(c2nc(OCc3ccc(F)nc3)nc(N3CCn4c(nnc4C(F)(F)F)C3)n2)CC1 | -2.57%
Cc1ccc(C)c(N2CCN(C(=O)C3CCN(c4ncnc5c4sc4ncccc45)CC3)CC2)c1 | 9.19%
CCS(=O)(=O)c1ccc(CNc2nc3ccccc3cc2C#N)s1 | -13.4%
COc1cc2nc(Nc3cc(C)[nH]n3)nc(N3CC(N(C)C)C3)c2cc1OC | 5.14%
O=C(N/N=C/c1ccc2cccc(O)c2n1)c1ccncc1 | 8.65%
CC(C)c1cc(Nc2nc(N[C@@H](CO)C3CCCCC3)nc3[nH]ncc23)n[nH]1 | -18.2%
O=C(CSc1nc(=O)[nH]c2c1CCC2)c1ccc(Cl)cc1 | -22%
O=C(Nc1nnc2ccccn12)c1ccc2cccc(Cl)c2n1 | -51.6%
NC(=O)C1CCN(c2nc(OCc3ccc(F)nc3)nc(N3CCCOCC3)n2)CC1 | -2.97%
COC(COc1cncc2nnc(-c3ccc(OC(F)F)cc3)n12)c1ccccc1 (centres undefined) | -38.8%
O=C(Cc1ccc(C(F)(F)F)nc1)N1Cc2cccnc2C1 | -5.95%
COc1cccc(C(=O)Nc2nc3cc(Cl)c(OC)cc3s2)c1 | -30.8%
O=c1[nH]c(=O)c2cc(S(=O)(=O)Nc3cc(F)c(N4CCN(c5ccccn5)CC4)c(F)c3)ccc2[nH]1 | 0.946%
Cn1nc(C(C)(C)C)cc1NC(=O)Nc1ccc(Cl)cc1 | 12.6%
O=C(Nc1ccccc1)C(Cl)C(=O)c1ccccc1 (centres undefined) | 20.3%
CC(Nc1ccc2oc(=O)[nH]c2c1)C(=O)Nc1ccccc1C#N (centres undefined) | -4.73%
CC1=CC(=O)C=C(C)C1=NOS(=O)(=O)c1ccc(Cl)cc1 | -42.6%
CC(C)CC(N)C(=O)NS(=O)(=O)c1cccc(-c2cc3ncnc(N)c3s2)c1 (centres undefined) | -84.3%
O=C(N1CCCCC1)N1CCCCC1Cc1ccccc1 (centres undefined) | -3.65%
Cc1ccc(CN2C(=O)NC3(CCN(C(=O)C(C)Oc4ccccc4)CC3)C2=O)cc1 (centres undefined) | -2.03%

Tested on: S. aureus ATCC 9144 growth inhibition, 100 uM
Assay: as above
Conditions: S. aureus ATCC 9144 growth inhibition; at 100 µM; stronger effect = higher value

Compound | inhibition
COc1ccc2c(c1)nc(-c1c[nH]c3ccc(N4CCSCC4)cc13)c1[nH]ccc12 | 98.1%
N#Cc1cc(-c2cccc(Cl)c2)no1 | 15.6% (inactive)
NC(=O)C1CCN(c2nc(OCc3ccc(F)nc3)nc(N3CCn4c(nnc4C(F)(F)F)C3)n2)CC1 | 16.7% (inactive)
Cc1ccc(C)c(N2CCN(C(=O)C3CCN(c4ncnc5c4sc4ncccc45)CC3)CC2)c1 | 6.17% (inactive)
CCS(=O)(=O)c1ccc(CNc2nc3ccccc3cc2C#N)s1 | 22.3% (inactive)
COc1cc2nc(Nc3cc(C)[nH]n3)nc(N3CC(N(C)C)C3)c2cc1OC | 33% (inactive)
O=C(N/N=C/c1ccc2cccc(O)c2n1)c1ccncc1 | 23.3% (inactive)
CC(C)c1cc(Nc2nc(N[C@@H](CO)C3CCCCC3)nc3[nH]ncc23)n[nH]1 | -3.86%
O=C(CSc1nc(=O)[nH]c2c1CCC2)c1ccc(Cl)cc1 | -14.2% (inactive)
O=C(Nc1nnc2ccccn12)c1ccc2cccc(Cl)c2n1 | -41.5% (inactive)
NC(=O)C1CCN(c2nc(OCc3ccc(F)nc3)nc(N3CCCOCC3)n2)CC1 | 18.4% (inactive)
COC(COc1cncc2nnc(-c3ccc(OC(F)F)cc3)n12)c1ccccc1 (centres undefined) | -22.8% (inactive)
O=C(Cc1ccc(C(F)(F)F)nc1)N1Cc2cccnc2C1 | 6.84% (inactive)
COc1cccc(C(=O)Nc2nc3cc(Cl)c(OC)cc3s2)c1 | 2.28% (inactive)
O=c1[nH]c(=O)c2cc(S(=O)(=O)Nc3cc(F)c(N4CCN(c5ccccn5)CC4)c(F)c3)ccc2[nH]1 | 10.2% (inactive)
Cn1nc(C(C)(C)C)cc1NC(=O)Nc1ccc(Cl)cc1 | -18.4%
O=C(Nc1ccccc1)C(Cl)C(=O)c1ccccc1 (centres undefined) | 100%
CC(Nc1ccc2oc(=O)[nH]c2c1)C(=O)Nc1ccccc1C#N (centres undefined) | 8.83% (inactive)
CC1=CC(=O)C=C(C)C1=NOS(=O)(=O)c1ccc(Cl)cc1 | 98.2%
CC(C)CC(N)C(=O)NS(=O)(=O)c1cccc(-c2cc3ncnc(N)c3s2)c1 (centres undefined) | -17.7% (inactive)
O=C(N1CCCCC1)N1CCCCC1Cc1ccccc1 (centres undefined) | 7% (inactive)
Cc1ccc(CN2C(=O)NC3(CCN(C(=O)C(C)Oc4ccccc4)CC3)C2=O)cc1 (centres undefined) | 8.83% (inactive)

Tested on: M. abscessus growth inhibition, 10 uM
Assay: as above
Conditions: S. aureus ATCC 9144 growth inhibition; measured here: M. abscessus; at 10 µM

Compound | inhibition
COc1ccc2c(c1)nc(-c1c[nH]c3ccc(N4CCSCC4)cc13)c1[nH]ccc12 | 0.136%
N#Cc1cc(-c2cccc(Cl)c2)no1 | 0.0599%
NC(=O)C1CCN(c2nc(OCc3ccc(F)nc3)nc(N3CCn4c(nnc4C(F)(F)F)C3)n2)CC1 | 0.0526%
Cc1ccc(C)c(N2CCN(C(=O)C3CCN(c4ncnc5c4sc4ncccc45)CC3)CC2)c1 | -1.18%
CCS(=O)(=O)c1ccc(CNc2nc3ccccc3cc2C#N)s1 | 0.173%
COc1cc2nc(Nc3cc(C)[nH]n3)nc(N3CC(N(C)C)C3)c2cc1OC | -0.369%
O=C(N/N=C/c1ccc2cccc(O)c2n1)c1ccncc1 | -0.775%
CC(C)c1cc(Nc2nc(N[C@@H](CO)C3CCCCC3)nc3[nH]ncc23)n[nH]1 | -0.415%
O=C(CSc1nc(=O)[nH]c2c1CCC2)c1ccc(Cl)cc1 | -0.381%
O=C(Nc1nnc2ccccn12)c1ccc2cccc(Cl)c2n1 | -0.577%
NC(=O)C1CCN(c2nc(OCc3ccc(F)nc3)nc(N3CCCOCC3)n2)CC1 | -0.107%
COC(COc1cncc2nnc(-c3ccc(OC(F)F)cc3)n12)c1ccccc1 (centres undefined) | -0.536%
O=C(Cc1ccc(C(F)(F)F)nc1)N1Cc2cccnc2C1 | -0.0961%
COc1cccc(C(=O)Nc2nc3cc(Cl)c(OC)cc3s2)c1 | -0.266%
O=c1[nH]c(=O)c2cc(S(=O)(=O)Nc3cc(F)c(N4CCN(c5ccccn5)CC4)c(F)c3)ccc2[nH]1 | -0.0939%
Cn1nc(C(C)(C)C)cc1NC(=O)Nc1ccc(Cl)cc1 | -0.347%
O=C(Nc1ccccc1)C(Cl)C(=O)c1ccccc1 (centres undefined) | -1.14%
CC(Nc1ccc2oc(=O)[nH]c2c1)C(=O)Nc1ccccc1C#N (centres undefined) | -1.22%
CC1=CC(=O)C=C(C)C1=NOS(=O)(=O)c1ccc(Cl)cc1 | -0.716%
CC(C)CC(N)C(=O)NS(=O)(=O)c1cccc(-c2cc3ncnc(N)c3s2)c1 (centres undefined) | -0.687%
O=C(N1CCCCC1)N1CCCCC1Cc1ccccc1 (centres undefined) | -0.54%
Cc1ccc(CN2C(=O)NC3(CCN(C(=O)C(C)Oc4ccccc4)CC3)C2=O)cc1 (centres undefined) | -1.03%

Tested on: E. coli NCTC 12923 + PMBN growth inhibition, 100 uM
Assay: as above
Conditions: S. aureus ATCC 9144 growth inhibition; measured here: E. coli plus PMBN; at 100 µM; stronger effect = higher value

Compound | inhibition
COc1ccc2c(c1)nc(-c1c[nH]c3ccc(N4CCSCC4)cc13)c1[nH]ccc12 | 97%
N#Cc1cc(-c2cccc(Cl)c2)no1 | 1.71%
NC(=O)C1CCN(c2nc(OCc3ccc(F)nc3)nc(N3CCn4c(nnc4C(F)(F)F)C3)n2)CC1 | -3.54%
Cc1ccc(C)c(N2CCN(C(=O)C3CCN(c4ncnc5c4sc4ncccc45)CC3)CC2)c1 | 0.988%
CCS(=O)(=O)c1ccc(CNc2nc3ccccc3cc2C#N)s1 | -0.61%
COc1cc2nc(Nc3cc(C)[nH]n3)nc(N3CC(N(C)C)C3)c2cc1OC | -10.1%
O=C(N/N=C/c1ccc2cccc(O)c2n1)c1ccncc1 | -1.73%
CC(C)c1cc(Nc2nc(N[C@@H](CO)C3CCCCC3)nc3[nH]ncc23)n[nH]1 | 99.1%
O=C(CSc1nc(=O)[nH]c2c1CCC2)c1ccc(Cl)cc1 | -20%
O=C(Nc1nnc2ccccn12)c1ccc2cccc(Cl)c2n1 | -43.8%
NC(=O)C1CCN(c2nc(OCc3ccc(F)nc3)nc(N3CCCOCC3)n2)CC1 | -2.07%
